Measured values from patent US10125118B2, “Heteroaryl compounds and their use as therapeutic drugs” (Dong-A Socio Holdings Co., Ltd., priority 2015, dated 2018).

What was measured:
[1] = test system: CD8-MerTK in Ba/F3-CDM cells; experiment: In cell MER kinase assay, Ba/F3-CDM cell proliferation without IL-3 (Celltiter-Glo); format: cell-based, murine; conditions: 48 hours compound treatment, read-out: Cell growth inhibition (GI50)
Description: To establish an in cell kinase assay for MerTK kinase, the IL-3 dependent Ba/F3 cells of murine lymphoid origin was transfected with CD8-MerTK. […] For a routine cellular assay, Ba/F3-CDM cells were seeded at 2,000 cells per well in 384-well cell culture plate containing DMEM/10% FBS culture media and incubated for 24 hours before addition of compounds pre-diluted in culture media. Following compound treatment, cells were further incubated for 48 hours and the proliferation was measured. To discriminate a Ba/F3 growth inhibition by a specific inhibition of MerTK kinase following compound treatment vs growth inhibition due to a non-specific unintended cytotoxicity of compounds, we routinely carried out control sets of Ba/F3 cells in parallel that grown in IL3-supplemented growth media. In the presence of IL-3, the proliferation of Ba/F3 is no longer dependent on the MerTK activity. Cell growth and proliferation was measured with Celltiter-Glo™ system (Promega, USA) according to the manufacturer's instruction. The half-maximal growth inhibitory concentration (GI50) value was calculated with Prism6.0 software (GraphPad, USA).

[2] = biological target: human c-MER catalytic domain (Homo sapiens (Human), UniProt Q12866); experiment: LanthaScreen TR-FRET kinase assay, c-MER; conditions: read-out: Mer TK inhibition (IC50); Biochemical IC50, TR-FRET, 10 uM ATP
human c-MER catalytic domain, sequence (Q12866 587-858): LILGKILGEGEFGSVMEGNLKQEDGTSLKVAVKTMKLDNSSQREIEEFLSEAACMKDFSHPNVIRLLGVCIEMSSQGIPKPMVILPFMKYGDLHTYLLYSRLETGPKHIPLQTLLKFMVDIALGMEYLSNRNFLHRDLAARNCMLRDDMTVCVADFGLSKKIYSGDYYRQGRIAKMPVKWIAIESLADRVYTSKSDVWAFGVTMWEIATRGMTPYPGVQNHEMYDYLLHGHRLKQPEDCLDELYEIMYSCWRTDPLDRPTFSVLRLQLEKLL

Structure (SMILES) | GI50 [1] [nM] | IC50 [2] [nM]
CC(c1ccc(-c2ccc(CO[C@H]3CCC[C@@H]3NC(=O)c3cc(-c4cncc(F)c4)cnc3N)cc2)cc1)N1CCN(C)CC1 (stereo partly drawn) [Example 230, 6-amino-5′-fluoro-N-((1S,2S)-2-((4′-(1-(4-methylpiperazin-1-yl)ethyl)-[1,1′-biphenyl]-4-yl)methoxy)cyclopentyl)-[3,3′-bipyridine]-5-carboxamide] | < 100 | < 10
CCc1cc(CO[C@H]2CNC[C@@H]2NC(=O)c2cc(-c3cnn(C4CCNCC4)c3)cnc2N)ccc1C [Example 412, 2-amino-N-((3S,4S)-4-((3-ethyl-4-methylbenzyl)oxy)pyrrolidin-3-yl)-5-(1-(piperidin-4-yl)-1H-pyrazol-4-yl)nicotinamide] | > 1000 | < 10
CC(c1ccc(-c2ccc(CO[C@H]3CN(C)C[C@@H]3NC(=O)c3cc(-c4cnn(C)c4)cnc3N)cc2)cc1)N1CCN(C)CC1 (stereo partly drawn) [Example 439, 2-amino-5-(1-methyl-1H-pyrazol-4-yl)-N-((3S,4S)-1-methyl-4-((4′-(1-(4-methylpiperazin-1-yl)ethyl)-[1,1′-biphenyl]-4-yl)methoxy)pyrrolidin-3-yl)-nicotinamide] | 100 to 500 | < 10
CN1CCN(CCc2ccc(-c3ccc(CO[C@H]4CCC[C@@H]4NC(=O)c4cc(-c5cnn(C)c5)cnc4N)cc3)cc2)CC1 [Example 161, 2-amino-5-(1-methyl-1H-pyrazol-4-yl)-N-((1S,2S)-2-((4′-(2-(4-methylpiperazin-1-yl)ethyl)-[1,1′-biphenyl]-4-yl)methoxy)cyclopentyl)nicotinamide] | < 100 | < 10
CCc1cc(CO[C@H]2CNC[C@@H]2NC(=O)c2cc(-c3ccc(CC#N)cc3)cnc2N)ccc1C [Example 411, 2-amino-5-(4-(cyanomethyl)phenyl)-N-((3S,4S)-4-((3-ethyl-4-methylbenzyl)oxy)pyrrolidin-3-yl)nicotinamide] | 100 to 500 | < 10
CN1CCN(Cc2ccc(-c3ccc(CO[C@H]4CCC[C@@H]4NC(=O)c4cc(-c5ccncc5)cnc4N)cc3)cc2)CC1 [Example 377, 6-amino-N-((1S,2S)-2-((4′-((4-methylpiperazin-1-yl)methyl)-[1,1′-biphenyl]-4-yl)methoxy)cyclopentyl)-[3,4′-bipyridine]-5-carboxamide] | < 100 | < 10
Cc1ccc(CO[C@H]2CCC[C@@H]2NC(=O)c2cc(-c3ccc(CN4CCC(N5CCOCC5)C4)cc3)cnc2N)cc1C (stereo partly drawn) [Example 337, 2-amino-N-((1S,2S)-2-((3,4-dimethylbenzyl)oxy)cyclopentyl)-5-(4-((3-morpholinopyrrolidin-1-yl)methyl)phenyl)nicotinamide] | 500 to 1000 | < 10
CN1CCC(Oc2ccc(-c3ccc(CO[C@H]4CCC[C@@H]4NC(=O)c4cc(-c5cnn(C)c5)cnc4N)cc3)cc2)CC1 [Example 247, 2-amino-5-(1-methyl-1H-pyrazol-4-yl)-N-((1S,2S)-2-((4′-((1-methylpiperidin-4-yl)oxy)-[1,1′-biphenyl]-4-yl)methoxy)cyclopentyl)nicotinamide] | 100 to 500 | < 10
COc1ccc(-c2cnc(N)c(C(=O)N[C@H]3CCC[C@@H]3OCc3ccc(-c4ccc(CN5CCN(C)CC5)cc4)cc3)c2)cc1OC [Example 383, 2-amino-5-(3,4-dimethoxyphenyl)-N-((1S,2S)-2-((4′-((4-methylpiperazin-1-yl)methyl)-[1,1′-biphenyl]-4-yl)methoxy)cyclopentyl)nicotinamide] | < 100 | < 10
CN1CCN(Cc2ccc(-c3ccc(CO[C@H]4CCC[C@@H]4NC(=O)c4cc(-c5cnn(C)c5)cnc4N)cc3)cc2O)CC1 [Example 199, 2-amino-N-((1S,2S)-2-((3′-hydroxy-4′-((4-methylpiperazin-1-yl)methyl)-[1,1′-biphenyl]-4-yl)methoxy)cyclopentyl)-5-(1-methyl-1H-pyrazol-4-yl)nicotinamide] | < 100 | < 10
C[C@@H]1CN(Cc2ccc(-c3ccc(CO[C@H]4CCC[C@@H]4NC(=O)c4cc(-c5cnn(C)c5)cnc4N)cc3)cc2)C[C@H](C)N1 [Example 189, 2-amino-N-((1S,2S)-2-((4′-((cis-3,5-dimethylpiperazin-1-yl)-methyl)-[1,1′-biphenyl]-4-yl)methoxy)cyclopentyl)-5-(1-methyl-1H-pyrazol-4-yl)-nicotinamide] | 100 to 500 | < 10
C[C@@H](c1ccc(-c2ccc(CO[C@H]3CCC[C@@H]3NC(=O)c3cc(-c4cnn(C)c4)cnc3N)cc2)cc1)N1CCN(C)CC1 [Example 215, 2-amino-5-(1-methyl-1H-pyrazol-4-yl)-N-((1S,2S)-2-((4′-((S)-1-(4-methylpiperazin-1-yl)ethyl)-[1,1′-biphenyl]-4-yl)methoxy)cyclopentyl)nicotinamide] | < 100 | < 10
CC(c1ccc(-c2ccc(CO[C@H]3CCC[C@@H]3NC(=O)c3cc(-c4ccc(F)nc4)cnc3N)cc2)cc1)N1CCN(C)CC1 (stereo in doubt) [Example 223, 6-amino-6′-fluoro-N-((1S,2S)-2-((4′-((R)-1-(4-methylpiperazin-1-yl)ethyl)-[1,1′-biphenyl]-4-yl)methoxy)cyclopentyl)-[3,3′-bipyridine]-5-carboxamide] | 100 to 500 | < 10
CN1CCC(n2cc(-c3cnc(N)c(C(=O)N[C@H]4CCC[C@@H]4OCc4ccc(-c5ccc(CN6CCN(C)CC6)cc5)cc4)c3)cn2)CC1 [Example 366, 2-amino-N-((1S,2S)-2-((4′-((4-methylpiperazin-1-yl)methyl)-[1,1′-biphenyl]-4-yl)methoxy)cyclopentyl)-5-(1-(1-methylpiperidin-4-yl)-1H-pyrazol-4-yl)nicotinamide] | < 100 | < 10
CCc1cc(CO[C@H]2CCC[C@@H]2NC(=O)c2cc(-c3ccc(C(C)(C)N4CCN(CCO)CC4)cc3)cnc2N)ccc1C [Example 360, 2-amino-N-((1S,2S)-2-((3-ethyl-4-methylbenzyl)oxy)cyclopentyl)-5-(4-(2-(4-(2-hydroxyethyl)piperazin-1-yl)propan-2-yl)phenyl)nicotinamide] | > 1000 | < 10
CC(c1c(F)cc(-c2ccc(CO[C@H]3CCC[C@@H]3NC(=O)c3cc(-c4cnn(C)c4)cnc3N)cc2)cc1F)N1CCN(CCO)CC1 (stereo partly drawn) [Example 212, 2-amino-N-((1S,2S)-2-((3′,5′-difluoro-4′-(1-(4-(2-hydroxyethyl)-piperazin-1-yl)ethyl)-[1,1′-biphenyl]-4-yl)methoxy)cyclopentyl)-5-(1-methyl-1H-pyrazol-4-yl)nicotinamide] | > 1000 | < 10
C[C@@H]1CN(Cc2ccc(-c3ccc(CO[C@H]4CCC[C@@H]4NC(=O)c4cc(-c5cnn(C)c5)cnc4N)c(F)c3)cc2)C[C@H](C)N1C [Example 157, 2-amino-N-((1S,2S)-2-((3-fluoro-4′-((cis-3,4,5-trimethylpiperazin-1-yl)methyl)-[1,1′-biphenyl]-4-yl)methoxy)cyclopentyl)-5-(1-methyl-1H-pyrazol-4-yl)-nicotinamide] | 100 to 500 | < 10
CN1CCN(C2(c3ccc(-c4ccc(CO[C@H]5CCC[C@@H]5NC(=O)c5cc(-c6ccc(F)nc6)cnc5N)cc4)cc3)CC2)CC1 [Example 224, 6-amino-6′-fluoro-N-((1S,2S)-2-((4′-(1-(4-methylpiperazin-1-yl)cyclopropyl)-[1,1′-biphenyl]-4-yl)methoxy)cyclopentyl)-[3,3′-bipyridine]-5-carboxamide] | 100 to 500 | < 10
Cn1cc(-c2cnc(N)c(C(=O)N[C@H]3CCC[C@@H]3OCc3ccc(-c4ccc(CN5CCC(O)CC5)cc4)cc3)c2)cn1 [Example 180, 2-amino-N-((1S,2S)-2-((4′-((4-hydroxypiperidin-1-yl)methyl)-[1,1′-biphenyl]-4-yl)methoxy)cyclopentyl)-5-(1-methyl-1H-pyrazol-4-yl)nicotinamide] | > 1000 | < 10
CCc1cc(CO[C@H]2CNC[C@@H]2NC(=O)c2cc(-c3cnn(C4CCN(C)CC4)c3)cnc2N)ccc1C [Example 413, 2-amino-N-((3S,4S)-4-((3-ethyl-4-methylbenzyl)oxy)pyrrolidin-3-yl)-5-(1-(1-methylpiperidin-4-yl)-1H-pyrazol-4-yl)nicotinamide] | 500 to 1000 | < 10
CN(C)c1ccc(-c2ccc(CO[C@H]3CCC[C@@H]3NC(=O)c3cc(-c4cnn(C)c4)cnc3N)cc2)cc1 [Example 137, 2-amino-N-((1S,2S)-2-((4′-(dimethylamino)-[1,1′-biphenyl]-4-yl)methoxy)cyclopentyl)-5-(1-methyl-1H-pyrazol-4-yl)nicotinamide] | < 100 | < 10
Nc1ncc(-c2ccc(F)nc2)cc1C(=O)N[C@H]1CCC[C@@H]1OCc1ccc(-c2ccc(C3(N4CCN(CCO)CC4)CC3)cc2)cc1 [Example 228] | 100 to 500 | < 10
Cc1cnc(N)c(C(=O)N[C@H]2CCC[C@@H]2OCc2ccc(-c3ccc(CN4CCN(C)CC4)cc3)cc2)c1 [Example 374, 2-amino-5-methyl-N-((1S,2S)-2-((4′-((4-methylpiperazin-1-yl)-methyl)-[1,1′-biphenyl]-4-yl)methoxy)cyclopentyl)nicotinamide] | 100 to 500 | < 10
